Measured values from patent US20090233893A1, “Methods of Dissolving Beta-Sheet Proteins and Uses Thereof” (priority 2006, published 2009).
Several values for one entry are separate records, joined by “and”; a condition that tells them apart may be missing. Equal values may be shown once. Marks after values point to notes of the source that are not given here.

Key:
wool = wool tertiary structure is a bundle of α-helices; selectivity
Description: Wool's tertiary structure is a bundle of α-helices. […] The polyproline II conformation of collagen places its dihedral angles in the immediate vicinity of those for the β-sheet structure on a Ramachandran plot. Thus, choice of cation confers selectivity.

[1] = Environmental Protection Agency (1999); cited from earlier work
B. mori fibroin = conditions: for Dissolution of fibroin: basic 500 mM solution, 1:1 molar ratio
[2] = target: T1, Aβ 40 E22Q mutant peptide (Homo sapiens, UniProt P05067, E693Q); test: Dissolution of Aβ 40 E22Q mutant peptide by metallized chelator, FTIR amide bands; assay type: biochemical; conditions: Aβ40 E22Q dissolved in 500 mM chelator/heavy water solution
T1 sequence (P05067 672-711 E693Q): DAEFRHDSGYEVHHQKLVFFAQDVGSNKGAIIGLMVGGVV
Description: (§1) Each metal salt-chelator solution was prepared with a slight excess of metal salt. Chelator-dissolved proteins were then lyophilized twice to eliminate water and resuspended in 200 μl aliquots of heavy water for spectral analysis.
(§2) Fourier Transform Infrared (FTIR) Spectroscopy: Metal chelator-dissolved β-sheet samples were injected into a sample cell with calcium fluoride windows and 0.05 mm path length. The instrument (Nicolet Magna JR 560 Spectrometer, ThermoNicolet, Madison, Wis.) resolution was 4 cm^−1; 1000 scans were collected.
(§3) Spectral subtraction as well as curve fitting and second derivative analysis of the amide I bands was carried out with the software program, Grams/32 Spectral Notebase, version 4.02, level 1 (ThermoNicolet, Madison, Wis.). Curvefitting parameters were not restricted; the fraction of Lorentzian line shape was allowed to vary. The second derivative analysis was carried out using a Savitsky-Golay algorithm, using either a third or fourth degree polynomial fit.

[3] = tested on: tau paired helical filaments; conditions: basic 500 mM solution, 1:1 molar ratio
Aβ 42 wild type peptide = target: T2, Aβ 42 wild type peptide (Homo sapiens, UniProt P05067); test: Dissolution of Aβ 42 wild type peptide by metallized chelator, FTIR amide bands; assay type: biochemical; conditions: Aβ42 wt dissolved in 500 mM chelator/heavy water solution
T2 construct: The amide I band for the Aβ 42 wild type peptide in the solid state; gift of Dr. Jorge Ghiso
Description: as §1, §2, §3

Aβ 40 wild type peptide = target: T3, Aβ 40 wild type peptide (Homo sapiens, UniProt P05067); test: Dissolution of Aβ 40 wild type peptide by metallized chelator, FTIR amide bands; assay type: biochemical; conditions: Aβ40 wt dissolved in 500 mM chelator/heavy water solution
T3 construct: The amide I band for the Aβ 40 wild type peptide; gift of Dr. Jorge Ghiso
Description: as §1, §2, §3

Aβ 40 E22Q = Aβ 40 E22Q (Homo sapiens, UniProt P05067, E693Q); assay type: biochemical; conditions: Aβ 40 E22Q incubated at room temperature for 67 hours, pH 7.4
[4] = target: T4, Aβ 42 E22Q mutant peptide (Homo sapiens, UniProt P05067, E693Q); test: Dissolution of Aβ 42 E22Q mutant peptide by metallized chelator, FTIR amide bands; assay type: biochemical; conditions: Aβ42 E22Q dissolved in 500 mM chelator/heavy water solution
T4 sequence (P05067 672-713 E693Q): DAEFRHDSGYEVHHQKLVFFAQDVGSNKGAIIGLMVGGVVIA
Description: as §1, §2, §3

human erythrocytes = conditions: Funder et al., 1978; cited from earlier work

| Structure (SMILES) | Dissolution of wool (wool) | Toxicity, EPA determination [1] | Dissolution of fibroin (B. mori fibroin) | Speed of the dissolution process for the silk or fibroin fiber (B. mori fibroin; judged by eye, more rapid than in the Li^+ ethylene diamine bromide solution) | Amide I peak of metal chelator-dissolved peptide [2] | Amide II peak of metal chelator-dissolved peptide [2] | Dissolution of paired helical filaments [3] | Amide I peak of metal chelator-dissolved peptide (Aβ 42 wild type peptide) | Amide II peak of metal chelator-dissolved peptide (Aβ 42 wild type peptide) | Amide I peak of metal chelator-dissolved peptide (Aβ 40 wild type peptide) | Amide II peak of metal chelator-dissolved peptide (Aβ 40 wild type peptide) | Thioflavin T fluorescence yield less than that of the chelator-free aliquot (Aβ 40 E22Q) | Amide I peak of metal chelator-dissolved peptide [4] | Amide II peak of metal chelator-dissolved peptide [4] | Increase of lithium influx into human erythrocytes over lithium chloride (human erythrocytes) |
| --- | --- | --- | --- | --- | --- | --- | --- | --- | --- | --- | --- | --- | --- | --- | --- |
| NCCN.[Cu+2].[OH-].[OH-] [Cu^2+en, Cu^2+ ethylene diamine hydroxide] | not found to dissolve | safe for human consumption | can be dissolved | instantaneous on contact | 1673 cm⁻¹ | 1590 cm⁻¹ | can be dissolved | 1673 cm⁻¹ | 1534 cm⁻¹ and 1591 cm⁻¹ | 1673 cm⁻¹ | 1594 cm⁻¹ | 27% | 1673 cm⁻¹ | 1590 cm⁻¹ | – |
| NCCN.[Br-].[Li+] [Li^+en, Li^+ ethylene diamine bromide] | not found to dissolve | – | can be dissolved | – | 1621‡ cm^−1 and 1673 cm^−1 | 1531 cm⁻¹ | can be dissolved | 1626‡ cm^−1 and 1673 cm^−1 | 1562 cm⁻¹ | 1629 cm⁻¹ and 1646 cm⁻¹ and 1673 cm⁻¹ | 1562 cm⁻¹ | – | 1625‡ cm^−1 and 1673 cm^−1 | 1531 cm⁻¹ | – |
| O=C([O-])O.[Li+] [Lithium bicarbonate] | – | – | – | – | – | – | – | – | – | – | – | – | – | – | twelve-fold |
